Laboratory results reported in patent US11505558B1, “Antiviral heterocyclic compounds” (Enanta Pharmaceuticals, Inc., priority 2019, dated 2022).

Test system: genotype A, "Long" strain RSV
Test: RSV-A assay (CPE, ATPlite readout in Hep-2 cells)
Format: cell-based
Conditions: human respiratory syncytial virus, HEp-2, Hep-2 cells, genotype A "Long" strain RSV, MOI 0.1; read-out: Human RSV-A (“Long” strain) EC50
Description: Hep-2 cells, (originally derived from tumors grown in irradiated-cortisonised weanling rats that had been injected with epidermoid carcinoma tissue from a person's larynx, but later found to be indistinguishable from HeLa cells by PCR DNA analysis), were used for the culturing of genotype A, “Long” strain RSV. Flasks were inoculated with RSV and viral stocks were collected once cytopathic effect (CPE) was greater than […]. Viral stocks in […] sucrose media were snap frozen using liquid nitrogen to increase viral stability. Viral stock titers were quantified by tissue culture infectious dose 50% (TCID50) using 8,000 cells per well and 3-fold viral dilutions across a 96-well plate, cultured for 4 days. Viral stock titers were also quantified by a plaque forming unit assay, as described elsewhere.
Following extensive parameter testing, the final assay is run as follows: Hep-2 cells are seeded into the inner 60 wells of a 96-well plate at 8,000 cells per well in a volume of 50 μL using Growth Media (DMEM without phenol red, 1% L-Glut, 1% Penn/Strep, 1% nonessential amino acids, 10% heat-inactivated FBS). 2-fold serial dilutions of control and test compounds are added to the wells in duplicate in a total volume of 25 μL. Viral stock is then added to the wells at a multiplicity of infection (MOI) of 0.1 in a volume of 25 μL, bringing the total volume of each well to 100 μL. The MOI is calculated using the PFU/mL, or TCID50 if unavailable. Each 96-well plate has a control column of 6 wells with cells and virus but no compound (negative control, max CPE), a column with cells but no compound or virus (positive control, minimum CPE), and a column with no cells or virus or compound (background plate/reagent control). The control wells with cells but no virus are given an additional 25 μL of growth media containing an equal quantity of sucrose as those wells receiving the viral stock in order to keep consistent in media and volume conditions. The outer wells of the plate are filled with 125 μL of moat media (DMEM, 1% Penn/Strep) to act as a thermal and evaporative moat around the test wells. Following a 5-day incubation period, the plates are read using ATPlite (50 uL added per well), which quantifies the amount of ATP (a measure of cell health) present in each well. Assay plates are read using the Envision luminometer. […] EC50 ranges are as follows: A<0.2 μM; B>0.2 μM.

| EC50 | Compound |
| --- | --- |
| > 200 nM | COc1cc(C(=O)NC[C@](O)(c2cc3c(c(-c4ccc(F)cc4)n2)OC[C@]3(C)COC(=O)NC2CC2)C(F)(F)F)ccc1OCCO (single isomer, unassigned) [Example 7] |
| < 200 nM | COc1cc(C(=O)NC[C@](O)(c2cc3c(c(-c4ccc(F)cc4)n2)OC[C@]3(C)CNC2CC2)C(F)(F)F)ccc1OCCO [Example 3] |
| < 200 nM | COc1cc(C(=O)NCC(O)(c2cc3c(c(-c4ccc(F)cc4)n2)OC[C@]3(C)CN[C@@H](C)C2CC2)C(F)(F)F)ccc1OCCO (stereo partly shown) [Example 4] |
| > 200 nM | COc1cc(C(=O)NC[C@](O)(c2cc3c(c(-c4ccc(F)cc4)n2)OC[C@]3(C)CNc2ccccc2)C(F)(F)F)ccc1OCCO [Example 5] |
| > 200 nM | COc1cc(C(=O)NC[C@](O)(c2cc3c(c(-c4ccc(F)cc4)n2)OC[C@]3(C)COC(=O)Nc2ccccc2)C(F)(F)F)ccc1OCCO [Example 6] |
| > 200 nM | COc1cc(C(=O)NC[C@](O)(c2cc3c(c(-c4ccc(F)cc4)n2)OC[C@]3(C)CNC(=O)c2ccccc2)C(F)(F)F)ccc1OCCO [Example 8] |
| < 200 nM | COc1cc(C(=O)NC[C@](O)(c2cc3c(c(-c4ccc(F)cc4)n2)OC[C@]3(C)CNC(=O)C2CC2)C(F)(F)F)ccc1OCCO [Example 9] |
| < 200 nM | COc1cc(C(=O)NC[C@](O)(c2cc3c(c(-c4ccc(F)cc4)n2)OC[C@]3(C)C(=O)NC2CC2)C(F)(F)F)ccc1OCCO [Example 10] |
| < 200 nM | COc1cc(C(=O)NC[C@](O)(c2cc3c(c(-c4ccc(F)cc4)n2)OC[C@]3(C)C(N)=O)C(F)(F)F)ccc1OCCO [Example 11] |
| > 200 nM | COc1cc(C(=O)NCC(O)(c2cc3c(c(-c4ccc(F)cc4)n2)OC[C@]3(C)C(=O)NS(=O)(=O)C2CC2)C(F)(F)F)ccc1OCCO (stereo partly shown) [Example 12] |
| > 200 nM | COc1cc(C(=O)NCC(O)(c2cc3c(c(-c4ccc(F)cc4)n2)OC[C@]3(C)C(=O)O)C(F)(F)F)ccc1OCCO (stereo partly shown) [Example 13] |
| < 200 nM | COc1cc(C(=O)NC[C@](O)(c2cc3c(c(-c4ccc(F)cc4)n2)OC[C@]3(C)CNC2CC2)C(F)(F)F)ccc1OC1CC1 [Example 17] |
| < 200 nM | COc1cc(C(=O)NC[C@](O)(c2cc3c(c(-c4ccc(F)cc4)n2)OC[C@]3(C)CNCC2CC2)C(F)(F)F)ccc1OC1CC1 [Example 18] |
| < 200 nM | COc1cc(C(=O)NC[C@](O)(c2cc3c(c(-c4ccc(F)cc4)n2)OC[C@]3(C)CN[C@@H](C)C2CC2)C(F)(F)F)ccc1OC1CC1 [Example 19] |
| < 200 nM | COc1cc(C(=O)NC[C@](O)(c2cc3c(c(-c4ccc(F)cc4)n2)OC[C@]3(C)CNC2CC2)C(F)(F)F)cc2cccnc12 [Example 23] |
| < 200 nM | COc1cc(C(=O)NCC(O)(c2cc3c(c(-c4ccc(F)cc4)n2)OC[C@]3(C)CN[C@@H](C)C2CC2)C(F)(F)F)cc2cccnc12 (stereo partly shown) [Example 24] |
| < 200 nM | COc1cc(C(=O)NCC(O)(c2cc3c(c(-c4ccc(F)cc4)n2)OC[C@]3(C)CNCC2CC2)C(F)(F)F)cc2cccnc12 (stereo partly shown) [Example 25] |
| < 200 nM | COc1cc(C(=O)NC[C@](O)(c2cc3c(c(-c4ccc(F)cc4)n2)OC[C@]3(C)C(N)=O)C(F)(F)F)cc2cccnc12 [Example 28] |
| > 200 nM | C[C@]1(CNCC2CC2)COc2c1cc([C@@](O)(CNC(=O)c1ccc(OC(F)F)c(OCC3CC3)c1)C(F)(F)F)nc2-c1ccc(F)cc1 [Example 33] |
| > 200 nM | C[C@]1(CNCC2CC2)COc2c1cc([C@@](O)(CNC(=O)c1ccc3c(c1)OCCN3)C(F)(F)F)nc2-c1ccc(F)cc1 [Example 38] |
| > 200 nM | C[C@]1(CNCC2CC2)COc2c1cc([C@@](O)(CNC(=O)c1ccc3[nH]c(=O)[nH]c3c1)C(F)(F)F)nc2-c1ccc(F)cc1 [Example 40] |
| > 200 nM | COc1cc(C(=O)NC[C@](O)(c2cc3c(c(-c4ccc(F)cc4)n2)OC[C@]3(C)CNCC2CC2)C(F)(F)F)ccc1OC(F)F [Example 41] |
| > 200 nM | C[C@]1(CNCC2CC2)COc2c1cc([C@@](O)(CNC(=O)c1ccc(OC(F)F)c(O)c1)C(F)(F)F)nc2-c1ccc(F)cc1 [Example 42] |
| > 200 nM | COc1cc(C(=O)NC[C@](O)(c2cc3c(c(-c4ccc(F)cc4)n2)OC[C@]3(C)C(=O)NC2CCCC2)C(F)(F)F)cc2cccnc12 [Example 47] |
| < 200 nM | COc1cc(C(=O)NC[C@](O)(c2cc3c(c(-c4ccc(F)cc4)n2)OC[C@]3(C)C(=O)NCC(F)(F)F)C(F)(F)F)cc2cccnc12 [Example 48] |

| EC50 | Compound |
| --- | --- |
| < 200 nM | COc1cc(C(=O)NC[C@](O)(c2cc3c(c(-c4ccc(F)cc4)n2)OC[C@]3(C)C(=O)NCC2CC2)C(F)(F)F)cc2cccnc12 [Example 50] |
| > 200 nM | COc1cc(C(=O)NC[C@](O)(c2cc3c(c(-c4ccc(F)cc4)n2)OC[C@]3(C)C(=O)NC2(C(F)(F)F)CC2)C(F)(F)F)cc2cccnc12 [Example 51] |
| < 200 nM | COc1cc(C(=O)NC[C@](O)(c2cc3c(c(-c4ccc(F)cc4)n2)OC[C@]3(C)C(=O)NC23CC(C2)C3)C(F)(F)F)cc2cccnc12 [Example 54] |
| < 200 nM | COc1cc(C(=O)NC[C@](O)(c2cc3c(c(-c4ccc(F)cc4)n2)OC[C@]3(C)C(=O)NC23CC(F)(C2)C3)C(F)(F)F)cc2cccnc12 [Example 55] |
| < 200 nM | COc1cc(C(=O)NC[C@](O)(c2cc3c(c(-c4ccc(F)cc4)n2)OC[C@]3(C)C(=O)NC2(C)COC2)C(F)(F)F)cc2cccnc12 [Example 57] |
| > 200 nM | COc1cc(C(=O)NC[C@](O)(c2cc3c(c(-c4ccc(F)cc4)n2)OC[C@]3(C)C(=O)NC2(C)CC(F)(F)C2)C(F)(F)F)cc2cccnc12 [Example 58] |
| < 200 nM | C[C@]1(C(N)=O)COc2c1cc([C@@](O)(CNC(=O)c1cc(OC(F)F)c3ncccc3c1)C(F)(F)F)nc2-c1ccc(F)cc1 [Example 59] |
| < 200 nM | COc1cc(C(=O)NC[C@](O)(c2cc3c(c(-c4ccc(F)cc4)n2)OC[C@]3(C)C(N)=O)C(F)(F)F)cc2c1NC(=O)CC2 [Example 60] |
| < 200 nM | C[C@]1(C(N)=O)COc2c1cc([C@@](O)(CNC(=O)c1cc(F)c3ncccc3c1)C(F)(F)F)nc2-c1ccc(F)cc1 [Example 63] |
| < 200 nM | C[C@]1(C(N)=O)COc2c1cc([C@@](O)(CNC(=O)c1cc(C(F)(F)F)c3ncccc3c1)C(F)(F)F)nc2-c1ccc(F)cc1 [Example 64] |
| > 200 nM | C[C@]1(C(N)=O)COc2c1cc([C@@](O)(CNC(=O)c1ccc3c(c1)OC(F)(F)O3)C(F)(F)F)nc2-c1ccc(F)cc1 [Example 66] |
| < 200 nM | COc1cc(C(=O)NC[C@](O)(c2cc3c(c(-c4ccc(F)cc4)n2)OC[C@]3(C)C(N)=O)C(F)(F)F)ccc1OC(F)F [Example 67] |
| < 200 nM | COc1cc(C(=O)NC[C@](O)(c2cc3c(c(-c4ccc(F)cc4)n2)OC[C@]3(C)C(N)=O)C(F)(F)F)ccc1OCCF [Example 68] |
| < 200 nM | C[C@]1(C(N)=O)COc2c1cc([C@@](O)(CNC(=O)c1ccc(OC(F)F)c(OC(F)F)c1)C(F)(F)F)nc2-c1ccc(F)cc1 [Example 70] |
| < 200 nM | C[C@]1(C(N)=O)COc2c1cc([C@@](O)(CNC(=O)c1ccc(OC3CC3)cc1)C(F)(F)F)nc2-c1ccc(F)cc1 [Example 71] |
| < 200 nM | C[C@]1(C(N)=O)COc2c1cc([C@@](O)(CNC(=O)c1ccc(OC3CC3)c(F)c1)C(F)(F)F)nc2-c1ccc(F)cc1 [Example 72] |
| < 200 nM | COc1cc(C(=O)NC[C@](O)(c2cc3c(c(-c4ccc(F)cc4)n2)OC[C@]3(C)C(=O)NCC2(C)CC2)C(F)(F)F)cc2cccnc12 [Example 76] |
| < 200 nM | C[C@]1(C(N)=O)COc2c1cc([C@@](O)(CNC(=O)c1ccc(OC3CC3)c(-c3ccccc3)c1)C(F)(F)F)nc2-c1ccc(F)cc1 [Example 77] |
| < 200 nM | C[C@]1(C(N)=O)COc2c1cc([C@@](O)(CNC(=O)c1ccc(OC3CC3)c(-c3cncnc3)c1)C(F)(F)F)nc2-c1ccc(F)cc1 [Example 78] |
| > 200 nM | Cc1ncccc1-c1cc(C(=O)NC[C@](O)(c2cc3c(c(-c4ccc(F)cc4)n2)OC[C@]3(C)C(N)=O)C(F)(F)F)ccc1OC1CC1 [Example 97] |
| > 200 nM | C[C@]1(C(N)=O)COc2c1cc([C@@](O)(CNC(=O)c1ccc(OC3CC3)c(-c3ccnc(C(F)(F)F)c3)c1)C(F)(F)F)nc2-c1ccc(F)cc1 [Example 105] |
| < 200 nM | C[C@]1(C(N)=O)COc2c1cc([C@@](O)(CNC(=O)c1ccc(OC3CC3)c(-c3ccccn3)c1)C(F)(F)F)nc2-c1ccc(F)cc1 [Example 106] |
| > 200 nM | Cc1ccc(-c2cc(C(=O)NC[C@](O)(c3cc4c(c(-c5ccc(F)cc5)n3)OC[C@]4(C)C(N)=O)C(F)(F)F)ccc2OC2CC2)nc1 [Example 107] |
| > 200 nM | C[C@]1(C(N)=O)COc2c1cc([C@@](O)(CNC(=O)c1ccc(OC3CC3)c(-c3ccc(C(F)(F)F)cn3)c1)C(F)(F)F)nc2-c1ccc(F)cc1 [Example 108] |
